Where “and” joins values, the source holds several entries; their conditions need not be identical. Equal entries are not always repeated.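 How tested: cells in 96-well plates exposed to compound for 48 hours at five concentrations. GI50 marks 50% less growth.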 Calls of active or inactive are those of the source. No stated cut-off is given here; in the data, active = GI50 up to about 1.1 µM and inactive = higher.
Legend:
Test in all cases: NCI tumour cell line growth inhibition, 48 h
[1] = system: LXFL 529
[2] = system: 786-0
[3] = system: RXF 393
[4] = system: UACC-62
[5] = system: SK-OV-3
[6] = system: SK-MEL-5
[7] = system: KM-20L2
[8] = system: OVCAR-4
[9] = system: CCRF-CEM
[10] = system: M19-MEL
[11] = system: MOLT-4
[12] = system: UACC-257
[13] = system: SR
[14] = system: HCT-15
[15] = system: DMS-114
[16] = system: SF-539
[17] = system: LOX IMVI
[18] = system: Malme-3M
[19] = system: HCC 2998
[20] = system: SF-268
[21] = system: IGROV-1
[22] = system: U-251
[23] = system: M14
[24] = system: SK-MEL-2
[25] = system: HOP-62
[26] = system: OVCAR-8
[27] = system: SN12C
[28] = system: NCI-H226
[29] = system: NCI-H522
[30] = system: EKVX
[31] = system: DLD-1
[32] = system: XF498
[33] = system: SW-620
[34] = system: OVCAR-5
[35] = system: SNB-75
[36] = system: NCI-H23
[37] = system: COLO 205
[38] = system: UO-31
[39] = system: HL-60
[40] = system: SK-MEL-28
[41] = system: SNB-19
[42] = system: CAKI-1
[43] = system: OVCAR-3
[44] = system: TK-10
[45] = system: K562
[46] = system: SNB-78
[47] = system: RPMI-8226
[48] = system: NCI-H460
[49] = system: A549
[50] = system: SF-295
[51] = system: ACHN
[52] = system: HT-29
[53] = system: KM12
[54] = system: HOP-18
[55] = system: HCT-116
[56] = system: MDA-MB-435
[57] = system: MDA-N
[58] = system: T47D
[59] = system: MCF7
[60] = system: Hs-578T
[61] = system: HOP-92
[62] = system: PC-3
[63] = system: DU-145
[64] = system: MDA-MB-231
[65] = system: DMS-273
[66] = system: NCI/ADR-RES
[67] = system: BT-549
[68] = system: A498
[69] = system: RXF 631

COc1ccccc1/N=C(\N)N/N=C/c1c[nH]c2ccccc12
GI50 [1]: 2.23 µM (inactive)
GI50 [2]: 13.3 µM (inactive)
GI50 [3]: 14.1 µM (inactive)
GI50 [4]: 11.5 µM (inactive)
GI50 [5]: 15.6 µM (inactive)
GI50 [6]: 2.78 µM (inactive)
GI50 [7]: 13.3 µM (inactive)
GI50 [8]: 16.8 µM (inactive)
GI50 [9]: 5.93 µM (inactive)
GI50 [10]: 11.1 µM (inactive)
GI50 [11]: 3.13 µM (inactive)
GI50 [12]: 2.39 µM (inactive)
GI50 [13]: 5.01 µM (inactive)
GI50 [14]: 4.2 µM
GI50 [15]: 3.39 µM (inactive)
GI50 [16]: 13.5 µM (inactive)
GI50 [17]: 10.4 µM (inactive)
GI50 [18]: 2.58 µM (inactive)
GI50 [19]: 2.55 µM (inactive)
GI50 [20]: 14.2 µM (inactive)
GI50 [21]: 11 µM (inactive)
GI50 [22]: 11.6 µM (inactive)
GI50 [23]: 3.25 µM (inactive)
GI50 [24]: 6.46 µM (inactive)
GI50 [25]: 16.3 µM (inactive)
GI50 [26]: 13 µM (inactive)
GI50 [27]: 10.4 µM (inactive)
GI50 [28]: 14.4 µM (inactive)
GI50 [29]: 3.65 µM (inactive)
GI50 [30]: 11 µM (inactive)
GI50 [31]: 13.8 µM (inactive)
GI50 [32]: 4.42 µM (inactive)
GI50 [33]: 2.72 µM (inactive)
GI50 [34]: 13.9 µM (inactive)
GI50 [35]: 12.3 µM (inactive)
GI50 [36]: 4.79 µM (inactive)
GI50 [37]: 1.67 µM (inactive)
GI50 [38]: 13.3 µM (inactive)
GI50 [39]: 7.29 µM (inactive)
GI50 [40]: 3.57 µM (inactive)
GI50 [41]: 15.3 µM (inactive)
GI50 [42]: 13.3 µM (inactive)
GI50 [43]: 12.2 µM (inactive)
GI50 [44]: 16.8 µM (inactive)
GI50 [45]: 2.22 µM (inactive)
GI50 [46]: 6.85 µM (inactive)
GI50 [47]: 3.13 µM (inactive)
GI50 [48]: 8.87 µM (inactive)
GI50 [49]: 13.2 µM (inactive)
GI50 [50]: 8.97 µM (inactive)
GI50 [51]: 10.3 µM (inactive)
GI50 [52]: 4.01 µM (inactive)
GI50 [53]: 14.9 µM (inactive)
GI50 [54]: 18.6 µM (inactive)
GI50 [55]: 6.81 µM (inactive)

CN(C)CCNC(=O)c1cccc2cc([N+](=O)[O-])ccc12
GI50 [1]: 0.271 µM (active)
GI50 [56]: 2.23 µM (inactive)
GI50 [3]: 0.0649 µM (active)
GI50 [57]: 1.98 µM (inactive)
GI50 [7]: 0.111 µM (active)
GI50 [58]: 2.79 µM (inactive)
GI50 [10]: 0.279 µM (active)
GI50 [12]: 0.243 µM (active)
GI50 [15]: 0.217 µM (active)
GI50 [59]: 0.608 µM (active)
GI50 [60]: 1.46 µM (inactive)
GI50 [61]: 0.249 µM (active)
GI50 [62]: 0.76 µM (active)
GI50 [29]: 0.685 µM (active)
GI50 [63]: 2.86 µM (inactive)
GI50 [31]: 0.217 µM (active)
GI50 [32]: 0.252 µM (active)
GI50 [64]: 1.34 µM (inactive)
GI50 [42]: 0.519 µM (active)
GI50 [46]: 0.22 µM (active)
GI50 [47]: 183 nM (active) and 262 nM (active)
GI50 [65]: 0.123 µM (active)
GI50 [66]: 1.39 µM (inactive)
GI50 [54]: 0.697 µM (active)
GI50 [67]: 3.56 µM (inactive)

Cn1c(=O)nc2n(-c3ccc(Cl)c(C(F)(F)F)c3)c3ccccc3nc-2c1=O
GI50 [1]: 76.9 µM (inactive)
GI50 [2]: 57 µM (inactive)
GI50 [3]: 55.7 µM (inactive)
GI50 [4]: 16.6 µM (inactive)
GI50 [5]: > 100 µM (inactive)
GI50 [68]: > 79.3 µM (inactive)
GI50 [6]: 13.5 µM (inactive)
GI50 [7]: 25.1 µM (inactive)
GI50 [8]: 22.2 µM (inactive)
GI50 [9]: 30.8 µM (inactive)
GI50 [10]: 13.4 µM (inactive)
GI50 [11]: 36.7 µM (inactive)
GI50 [12]: 17.1 µM (inactive)
GI50 [14]: 31.4 µM
GI50 [15]: 16.7 µM (inactive)
GI50 [16]: 29 µM (inactive)
GI50 [17]: 35 µM (inactive)
GI50 [18]: 15 µM (inactive)
GI50 [19]: 25.6 µM (inactive)
GI50 [20]: 35.6 µM (inactive)
GI50 [21]: 84.1 µM (inactive)
GI50 [22]: 40.6 µM (inactive)
GI50 [61]: 40.8 µM (inactive)
GI50 [23]: 26.1 µM (inactive)
GI50 [24]: 34.7 µM (inactive)
GI50 [25]: 57.9 µM (inactive)
GI50 [26]: 24.9 µM (inactive)
GI50 [27]: 30.9 µM (inactive)
GI50 [28]: > 53.7 µM (inactive)
GI50 [29]: 25.1 µM (inactive)
GI50 [30]: 35.1 µM (inactive)
GI50 [31]: 20.1 µM (inactive)
GI50 [32]: 37.2 µM (inactive)
GI50 [33]: 22.9 µM (inactive)
GI50 [34]: 74.3 µM (inactive)
GI50 [35]: 94 µM (inactive)
GI50 [36]: 29.6 µM (inactive)
GI50 [37]: 17.7 µM (inactive)
GI50 [38]: > 77.4 µM (inactive)
GI50 [39]: 19.3 µM (inactive)
GI50 [40]: 65 µM (inactive)
GI50 [41]: 21.9 µM (inactive)
GI50 [42]: 51.4 µM (inactive)
GI50 [43]: 14.7 µM (inactive)
GI50 [44]: > 79.6 µM (inactive)
GI50 [45]: 35.5 µM (inactive)
GI50 [46]: 53.6 µM (inactive)
GI50 [47]: 33.2 µM (inactive)
GI50 [48]: 30.2 µM (inactive)
GI50 [65]: 32.1 µM (inactive)
GI50 [49]: 25.8 µM (inactive)
GI50 [50]: 44.2 µM (inactive)
GI50 [51]: 27.7 µM (inactive)
GI50 [52]: 24.3 µM (inactive)
GI50 [53]: 32.9 µM (inactive)
GI50 [54]: > 100 µM (inactive)
GI50 [55]: 27.2 µM (inactive)

CC(C)c1cc(C(C)C)c(S(=O)(=O)N=[N+]=[N-])c(C(C)C)c1
GI50 [1]: > 100 µM (inactive)
GI50 [69]: 59.8 µM (inactive)
GI50 [2]: > 100 µM (inactive)
GI50 [3]: 68.4 µM (inactive)
GI50 [4]: > 100 µM (inactive)
GI50 [5]: > 100 µM (inactive)
GI50 [6]: > 100 µM (inactive)
GI50 [7]: > 100 µM (inactive)
GI50 [8]: 81.8 µM (inactive)
GI50 [9]: 34.9 µM (inactive)
GI50 [10]: 34.9 µM (inactive)
GI50 [11]: 21.3 µM (inactive)
GI50 [12]: > 100 µM (inactive)
GI50 [13]: 31.6 µM (inactive)
GI50 [14]: > 100 µM
GI50 [16]: > 100 µM (inactive)
GI50 [17]: 47 µM (inactive)
GI50 [18]: > 100 µM (inactive)
GI50 [19]: > 100 µM (inactive)
GI50 [20]: 67.3 µM (inactive)
GI50 [21]: > 100 µM (inactive)
GI50 [22]: 44 µM (inactive)
GI50 [61]: > 100 µM (inactive)
GI50 [23]: > 100 µM (inactive)
GI50 [25]: > 100 µM (inactive)
GI50 [26]: > 100 µM (inactive)
GI50 [27]: > 100 µM (inactive)
GI50 [28]: > 100 µM (inactive)
GI50 [29]: > 100 µM (inactive)
GI50 [31]: > 100 µM (inactive)
GI50 [32]: > 100 µM (inactive)
GI50 [33]: > 100 µM (inactive)
GI50 [34]: > 100 µM (inactive)
GI50 [35]: 23 µM (inactive)
GI50 [36]: > 100 µM (inactive)
GI50 [37]: > 100 µM (inactive)
GI50 [38]: > 100 µM (inactive)
GI50 [39]: 22.9 µM (inactive)
GI50 [40]: > 100 µM (inactive)
GI50 [41]: > 100 µM (inactive)
GI50 [42]: > 100 µM (inactive)
GI50 [43]: > 100 µM (inactive)
GI50 [44]: > 100 µM (inactive)
GI50 [45]: 87.5 µM (inactive)
GI50 [47]: 18.7 µM (inactive)
GI50 [48]: > 100 µM (inactive)
GI50 [65]: 94 µM (inactive)
GI50 [49]: > 100 µM (inactive)
GI50 [51]: > 100 µM (inactive)
GI50 [52]: 46.6 µM (inactive)
GI50 [53]: > 100 µM (inactive)
GI50 [55]: > 100 µM (inactive)
